This is an account of results in patent US10787452B2 (Vertex Pharmaceuticals Incorporated, priority 2012, dated 2020).

Each structure is given as a SMILES string.

The assay concerns HCT116 colorectal cancer cells. Kind of assay: Cisplatin sensitization assay (96 h cell viability MTS).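 Also: compound concentration needed to lower the Cisplatin-alone IC50 by a set fold.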 Format: cell-based. The note with it: 96 h MTS, compound plus Cisplatin. In short, it runs like this:
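Test compound and cisplatin were added together as a full matrix of 2-fold serial dilutions, each from a top final concentration of 10 μM. Cells were incubated 96 h at 37° C in 5% CO2, then viability was read by MTS after a further 1 h incubation.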
With `Nc1nn2cc(Cl)cnc2c1C(=O)Nc1cnccc1OCC(F)(F)F` [I-O-59, 2-amino-6-chloro-N-(4-(2,2,2-trifluoroethoxy)pyridin-3-yl)pyrazolo[1,5-a]pyrimidine-3-carboxamide], the “Cisplatin Sensitization Assay” value is listed as “+++ (Compounds with a Cisplatin sensitization value of <0.02 μM are marked with “+++.”)”.
Take `Nc1nn2cc(Cl)cnc2c1C(=O)Nc1cnccc1OCCN1CCOCC1` [I-O-60, 2-amino-6-chloro-N-(4-(2-morpholinoethoxy)pyridin-3-yl)pyrazolo[1,5-a]pyrimidine-3-carboxamide]: the “Cisplatin Sensitization Assay” value was “++ (Compounds with a Cisplatin sensitization value >0.02 μM but <0.2 μM are marked with “++.”)”.
To `Nc1nn2cc(Cl)cnc2c1C(=O)Nc1cnccc1OC1CCOCC1` [I-O-61, 2-amino-6-chloro-N-(4-((tetrahydro-2H-pyran-4-yl)oxy)pyridin-3-yl)pyrazolo[1,5-a]pyrimidine-3-carboxamide] belongs “+++ (Compounds with a Cisplatin sensitization value of <0.02 μM are marked with “+++.”)”; to `Nc1nn2cc(Cl)cnc2c1C(=O)Nc1cnccc1OC1CN2CCC1CC2` (stereo not shown) [I-O-62, 2-amino-6-chloro-N-(4-(quinuclidin-3-yloxy)pyridin-3-yl)pyrazolo[1,5-a]pyrimidine-3-carboxamide], “+++ (Compounds with a Cisplatin sensitization value of <0.02 μM are marked with “+++.”)”; to `CN1CC[C@@H](Oc2ccncc2NC(=O)c2c(N)nn3cc(Cl)cnc23)C1` [I-O-63, (R)-2-amino-6-chloro-N-(4-((1-methylpyrrolidin-3-yl)oxy)pyridin-3-yl)pyrazolo[1,5-a]pyrimidine-3-carboxamide], “++ (Compounds with a Cisplatin sensitization value >0.02 μM but <0.2 μM are marked with “++.”)”.
For the compound `CN1CCC(Oc2ccncc2NC(=O)c2c(N)nn3cc(Cl)cnc23)CC1` [I-O-64, 2-amino-6-chloro-N-(4-((1-methylpiperidin-4-yl)oxy)pyridin-3-yl)pyrazolo[1,5-a]pyrimidine-3-carboxamide], the “Cisplatin Sensitization Assay” value is reported as “+++ (Compounds with a Cisplatin sensitization value of <0.02 μM are marked with “+++.”)”.
Take `Nc1nn2cc(Cl)cnc2c1C(=O)Nc1cnccc1OC1CCCOC1` (stereo not shown) [I-O-65, 2-amino-6-chloro-N-(4-((tetrahydro-2H-pyran-3-yl)oxy)pyridin-3-yl)pyrazolo[1,5-a]pyrimidine-3-carboxamide]: the “Cisplatin Sensitization Assay” value is on record as “+++ (Compounds with a Cisplatin sensitization value of <0.02 μM are marked with “+++.”)”.
As for `Nc1nn2cc(Cl)cnc2c1C(=O)Nc1cnccc1OCCO` [I-O-66, 2-amino-6-chloro-N-(4-(2-hydroxyethoxy)pyridin-3-yl)pyrazolo[1,5-a]pyrimidine-3-carboxamide], the entry is “+ (Compounds with a Cisplatin sensitization value >0.2 μM but <5 μM are marked with “+.”)”.
As for `COCCN1CCC[C@H](Oc2ccncc2NC(=O)c2c(N)nn3cc(Cl)cnc23)C1` [I-O-67, (S)-2-amino-6-chloro-N-(4-((1-(2-methoxyethyl)piperidin-3-yl)oxy)pyridin-3-yl)pyrazolo[1,5-a]pyrimidine-3-carboxamide], the entry is “++ (Compounds with a Cisplatin sensitization value >0.02 μM but <0.2 μM are marked with “++.”)”; as for `CN(C)CCOc1cc(Cl)ncc1NC(=O)c1c(N)nn2cc(Cl)cnc12` [I-O-68, 2-amino-6-chloro-N-(6-chloro-4-(2-(dimethylamino)ethoxy)pyridin-3-yl)pyrazolo[1,5-a]pyrimidine-3-carboxamide], “++ (Compounds with a Cisplatin sensitization value >0.02 μM but <0.2 μM are marked with “++.”)”; as for `Nc1nn2cc(Cl)cnc2c1C(=O)Nc1cnccc1Oc1cccnc1` [I-O-70, 2-amino-6-chloro-N-(4-(pyridin-3-yloxy)pyridin-3-yl)pyrazolo[1,5-a]pyrimidine-3-carboxamide], “+++ (Compounds with a Cisplatin sensitization value of <0.02 μM are marked with “+++.”)”.
Take `CN(C)CCOc1cc(C(F)(F)F)ncc1NC(=O)c1c(N)nn2cc(Cl)cnc12` [I-O-71, 2-amino-6-chloro-N-(4-(2-(dimethylamino)ethoxy)-6-(trifluoromethyl)pyridin-3-yl)pyrazolo[1,5-a]pyrimidine-3-carboxamide]: the “Cisplatin Sensitization Assay” value is reported as “+ (Compounds with a Cisplatin sensitization value >0.2 μM but <5 μM are marked with “+.”)”.
For the compound `Nc1nn2cc(Cl)cnc2c1C(=O)Nc1cnccc1OC1CC2(CNC2)C1` [I-O-72, N-(4-(2-azaspiro[3.3]heptan-6-yloxy)pyridin-3-yl)-2-amino-6-chloropyrazolo[1,5-a]pyrimidine-3-carboxamide], the “Cisplatin Sensitization Assay” value is reported as “+ (Compounds with a Cisplatin sensitization value >0.2 μM but <5 μM are marked with “+.”)”.
As for `Nc1nn2cc(Cl)cnc2c1C(=O)Nc1cnccc1OC1CNC1` [I-O-73, 2-amino-N-(4-(azetidin-3-yloxy)pyridin-3-yl)-6-chloropyrazolo[1,5-a]pyrimidine-3-carboxamide], the entry is “+ (Compounds with a Cisplatin sensitization value >0.2 μM but <5 μM are marked with “+.”)”; as for `Nc1nn2cc(Cl)cnc2c1C(=O)Nc1cnccc1O[C@H]1CCCNC1` [I-O-74, (S)-2-amino-6-chloro-N-(4-(piperidin-3-yloxy)pyridin-3-yl)pyrazolo[1,5-a]pyrimidine-3-carboxamide], “++ (Compounds with a Cisplatin sensitization value >0.02 μM but <0.2 μM are marked with “++.”)”; as for `Nc1nn2cc(Cl)cnc2c1C(=O)Nc1cnccc1OC1CCCNC1` (stereo not shown) [I-O-75, 2-amino-6-chloro-N-(4-(piperidin-3-yloxy)pyridin-3-yl)pyrazolo[1,5-a]pyrimidine-3-carboxamide], “++ (Compounds with a Cisplatin sensitization value >0.02 μM but <0.2 μM are marked with “++.”)”.
As for `Nc1nn2cc(Cl)cnc2c1C(=O)Nc1cnccc1O[C@@H]1CCNC1` [I-O-77, (R)-2-amino-6-chloro-N-(4-(pyrrolidin-3-yloxy)pyridin-3-yl)pyrazolo[1,5-a]pyrimidine-3-carboxamide], the entry is “++ (Compounds with a Cisplatin sensitization value >0.02 μM but <0.2 μM are marked with “++.”)”; as for `Nc1nn2cc(Cl)cnc2c1C(=O)Nc1cnccc1O[C@H]1C[C@]2(CCN2)C1` [I-O-78, N-(4-((4s,6r)-1-azaspiro[3.3]heptan-6-yloxy)pyridin-3-yl)-2-amino-6-chloropyrazolo[1,5-a]pyrimidine-3-carboxamide], “+ (Compounds with a Cisplatin sensitization value >0.2 μM but <5 μM are marked with “+.”)”; as for `Nc1nn2cc(Cl)cnc2c1C(=O)Nc1cnccc1O[C@H]1C[C@@]2(CCN2)C1` [I-O-79, N-(4-((4r,6s)-1-azaspiro[3.3]heptan-6-yloxy)pyridin-3-yl)-2-amino-6-chloropyrazolo[1,5-a]pyrimidine-3-carboxamide], “++ (Compounds with a Cisplatin sensitization value >0.02 μM but <0.2 μM are marked with “++.”)”.
As for `Nc1nn2cc(Cl)cnc2c1C(=O)Nc1cnccc1OC1CCNCC1` [I-O-80, 2-amino-6-chloro-N-(4-(piperidin-4-yloxy)pyridin-3-yl)pyrazolo[1,5-a]pyrimidine-3-carboxamide], the entry is “+++ (Compounds with a Cisplatin sensitization value of <0.02 μM are marked with “+++.”)”; as for `Nc1nn2cc(Cl)cnc2c1C(=O)Nc1cnccc1O[C@@H]1CCCNC1` [I-O-81, (R)-2-amino-6-chloro-N-(4-(piperidin-3-yloxy)pyridin-3-yl)pyrazolo[1,5-a]pyrimidine-3-carboxamide], “++ (Compounds with a Cisplatin sensitization value >0.02 μM but <0.2 μM are marked with “++.”)”.
With `N#CCc1cnc2c(C(=O)Nc3cnccc3OC3CNC3)c(N)nn2c1` [I-O-82, 2-amino-N-(4-(azetidin-3-yloxy)pyridin-3-yl)-6-(cyanomethyl)pyrazolo[1,5-a]pyrimidine-3-carboxamide], the “Cisplatin Sensitization Assay” value was “++ (Compounds with a Cisplatin sensitization value >0.02 μM but <0.2 μM are marked with “++.”)”.
As to `N#CCc1cnc2c(C(=O)Nc3cnccc3OCCN)c(N)nn2c1` [I-O-83, 2-amino-N-(4-(2-aminoethoxy)pyridin-3-yl)-6-(cyanomethyl)pyrazolo[1,5-a]pyrimidine-3-carboxamide], the “Cisplatin Sensitization Assay” value was “+++ (Compounds with a Cisplatin sensitization value of <0.02 μM are marked with “+++.”)”.
As for `N#CCc1cnc2c(C(=O)Nc3cnccc3OC3CCNCC3)c(N)nn2c1` [I-O-84, 2-amino-6-(cyanomethyl)-N-(4-(piperidin-4-yloxy)pyridin-3-yl)pyrazolo[1,5-a]pyrimidine-3-carboxamide], the entry is “++ (Compounds with a Cisplatin sensitization value >0.02 μM but <0.2 μM are marked with “++.”)”; as for `Nc1nn2cc(F)cnc2c1C(=O)Nc1cnccc1O[C@H]1CCCNC1` [I-O-85, (S)-2-amino-6-fluoro-N-(4-(piperidin-3-yloxy)pyridin-3-yl)pyrazolo[1,5-a]pyrimidine-3-carboxamide], “+++ (Compounds with a Cisplatin sensitization value of <0.02 μM are marked with “+++.”)”.
As for `N#CCc1cnc2c(C(=O)Nc3cnccc3O[C@H]3CCNC3)c(N)nn2c1` [I-O-86, (S)-2-amino-6-(cyanomethyl)-N-(4-(pyrrolidin-3-yloxy)pyridin-3-yl)pyrazolo[1,5-a]pyrimidine-3-carboxamide], the entry is “++ (Compounds with a Cisplatin sensitization value >0.02 μM but <0.2 μM are marked with “++.”)”; as for `CC(C)(C)Oc1ccncc1NC(=O)c1c(N)nn2cc(F)cnc12` [I-O-88, 2-amino-N-(4-(tert-butoxy)pyridin-3-yl)-6-fluoropyrazolo[1,5-a]pyrimidine-3-carboxamide], “+++ (Compounds with a Cisplatin sensitization value of <0.02 μM are marked with “+++.”)”; as for `CN1CCC(Oc2c(F)cncc2NC(=O)c2c(N)nn3cc(F)cnc23)CC1` [I-O-89, 2-amino-6-fluoro-N-(5-fluoro-4-((1-methylpiperidin-4-yl)oxy)pyridin-3-yl)pyrazolo[1,5-a]pyrimidine-3-carboxamide], “++ (Compounds with a Cisplatin sensitization value >0.02 μM but <0.2 μM are marked with “++.”)”.
